We go through three molecules from patent US20240124428A1, “HETEROCYCLIC INHIBITORS OF PCSK9” (CARDIO THERAPEUTICS PTY LTD, priority 2020, published 2024).

The structures appear in SMILES notation.

For data set [1], the target named is T1, binding between PCSK9 and the LDL receptor (Homo sapiens, UniProt Q8NBP7).
T1 construct: purchased CircuLex
As to the kind of experiment: In vitro PCSK9-LDLR binding assay (CircuLex kit). How it is done: Compounds were assayed for their ability to inhibit the binding between PCSK9 and the LDL receptor using a CircuLex PCSK9-LDLR in vitro binding assay kit. The procedure employed the reagents and buffers included in the kit as follows. 88 μL of 1× reaction buffer was placed into each well. 5 μL of test compound in 20% DMSO was added into each well. 10 mM solutions of test compounds in DMSO were diluted by 3-fold series to give 6-point concentration curves. The compounds were then diluted 20-fold with the reaction buffer. To each well was then added 7 μL of His-tagged PCSK9 wild type solution (1000 ng/mL). The plate was then covered with a plate sealer and incubated at room temperature for 3 hours, shaking at 300 rpm on an orbital microplate shaker. The test solutions were washed 4 times with 350 μL wash buffer. One 100 μL of biotinylated anti-His-tag monoclonal antibody was added to each well. The plate was covered with a plate sealer, and incubated at room temperature for 1 h, shaking at 300 rpm. The test solutions were washed 4 times with 350 μL wash buffer. […] of HRP-conjugated streptavidin was added to each well. The plate was covered with a plate sealer, and incubated at room temperature for 20 min, shaking at 300 rpm. The test solutions were washed 4 times with 350 μL wash buffer. 100 μL of substrate reagent was added into each well. The plate was covered with a plate sealer, and incubated at room temperature for 15 min, shaking at 300 rpm. Finally, 100 μL of stop solution was added to each well in the same order as the previously added substrate reagent.
The results of the binding assay are shown in FIG. 3, reported as IC50 (μM).

Another data set deals with Caco-2 cells. As to the kind of experiment: Caco2 assay. Particulars: 10 μM, 90 min. The format is in vitro ADME, human. On the procedure:
Caco-2 cells are a human colon epithelial cancer cell line used as a model of human intestinal absorption of drugs and other compounds. The compounds were assessed for their oral suitability in this assay, as compounds with good oral bioavailability likely evade efflux by pumps. The permeability coefficient (Papp) denotes the permeability of the drug through a monolayer of cells. Transport is assessed in both directions (apical to basolateral (A-B) and basolateral to apical (B-A)) across the cell monolayer to enable an efflux ratio to be determined which provides an indicator as to whether a compound undergoes active efflux.
Caco-2 cells were removed from an incubator and the cell monolayer was washed with HBSS buffer before the Transepithelial/transendothelial electrical resistance (TEER) was measured at room temperature. The transport experiment was started by adding 10 μM solution of test compounds in HBSS buffer containing luciferase yellow to the apical side. A sample from the apical chamber was taken at t=0 min. The volumes of the apical and basal sides were 400 μL and 800 μL respectively. The apical and basolateral plates were incubated at 37° C. for 90 min. After 90 min, the apical plate was separated from the basolateral plate and an aliquot from the basolateral side was transferred to an opaque plate for the determination of lucifer yellow concentration at t=90 min. The luciferase yellow concentration of each sample was measured by fluorimetry using excitation and emission wavelengths of 485 nm and 535 nm, respectively. Samples from the donor and receiver chambers were diluted with 0.4% DMSO in HBSS then mixed with ACN and either osalmid or imipramine, which were used as an IS in preparation for analysis by LC-MS/MS. Samples were then assayed for their levels of test compounds using an UPLC-MS/MS-29(API6500+) or an LC-MS/MS-014(API4000) instrument operating in a positive electrospray ionisation mode.

The target of the next data set is T2, hERG channel (Homo sapiens, UniProt Q12809).
T2 construct: expressed in transfected cells; host or cells: CHO
T2 sequence (Q12809 whole entry): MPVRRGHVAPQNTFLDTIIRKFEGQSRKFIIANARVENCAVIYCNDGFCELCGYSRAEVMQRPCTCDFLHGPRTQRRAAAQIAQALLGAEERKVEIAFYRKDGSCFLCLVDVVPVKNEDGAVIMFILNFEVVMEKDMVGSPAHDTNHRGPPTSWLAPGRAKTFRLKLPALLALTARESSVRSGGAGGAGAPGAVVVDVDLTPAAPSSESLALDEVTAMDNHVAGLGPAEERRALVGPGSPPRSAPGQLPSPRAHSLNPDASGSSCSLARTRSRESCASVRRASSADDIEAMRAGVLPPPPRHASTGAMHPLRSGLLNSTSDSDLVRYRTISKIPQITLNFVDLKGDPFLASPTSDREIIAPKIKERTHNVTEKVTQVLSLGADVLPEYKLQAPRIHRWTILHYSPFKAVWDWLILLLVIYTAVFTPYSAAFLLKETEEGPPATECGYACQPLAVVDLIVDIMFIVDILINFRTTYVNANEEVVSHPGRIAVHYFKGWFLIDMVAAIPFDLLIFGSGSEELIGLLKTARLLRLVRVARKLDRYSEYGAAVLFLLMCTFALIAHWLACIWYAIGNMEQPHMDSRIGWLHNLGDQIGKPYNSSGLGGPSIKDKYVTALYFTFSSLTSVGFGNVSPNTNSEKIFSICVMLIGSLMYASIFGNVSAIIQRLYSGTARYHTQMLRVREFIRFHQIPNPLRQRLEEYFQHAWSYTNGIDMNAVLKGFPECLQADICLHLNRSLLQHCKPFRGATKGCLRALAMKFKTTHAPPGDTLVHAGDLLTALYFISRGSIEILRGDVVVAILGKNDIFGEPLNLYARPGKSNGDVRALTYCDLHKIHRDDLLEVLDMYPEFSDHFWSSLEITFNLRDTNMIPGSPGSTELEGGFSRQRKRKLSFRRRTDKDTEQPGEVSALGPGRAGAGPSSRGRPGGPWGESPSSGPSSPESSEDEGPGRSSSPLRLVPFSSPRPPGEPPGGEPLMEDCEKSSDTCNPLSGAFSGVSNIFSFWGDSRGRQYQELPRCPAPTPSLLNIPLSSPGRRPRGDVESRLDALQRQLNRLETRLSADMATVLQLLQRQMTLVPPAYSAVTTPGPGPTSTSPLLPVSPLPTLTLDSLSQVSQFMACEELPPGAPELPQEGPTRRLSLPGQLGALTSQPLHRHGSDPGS
As to the kind of experiment: hERG assay (automated QPatch). The following applies: CHO cells expressing hERG channels. The format is cell-based. On the procedure: A CHO cell line stably transfected with hERG cDNA and expressing hERG channels was used. Cells used in the QPatch all met the following criteria: under microscopy examination, the majority of cells in suspension were single and isolated, their viability was greater than 95%, cell density ranged between 3-8×10^6 cells/mL in the final suspension before applying to the QPatch stir chamber. Cells were used within 4 hours of harvesting. Whole-cell recordings were performed using automated QPatch (Sophion Bioscience, Denmark). The cells were voltage clamped at a holding potential of −80 mV. The hERG current was activated by depolarising at +20 mV for 5 seconds, after which the current was taken back to −50 mV for 2.5 seconds to remove the inactivation and observe the outward tail current. The maximum amount of tail current was used to determine hERG current amplitude.

Another data set deals with T3, CYP3A4 (Homo sapiens, UniProt P08684).
T3 construct: using human liver microsomes; from tissue; host or cells: human liver microsomes
T3 sequence (P08684 whole entry): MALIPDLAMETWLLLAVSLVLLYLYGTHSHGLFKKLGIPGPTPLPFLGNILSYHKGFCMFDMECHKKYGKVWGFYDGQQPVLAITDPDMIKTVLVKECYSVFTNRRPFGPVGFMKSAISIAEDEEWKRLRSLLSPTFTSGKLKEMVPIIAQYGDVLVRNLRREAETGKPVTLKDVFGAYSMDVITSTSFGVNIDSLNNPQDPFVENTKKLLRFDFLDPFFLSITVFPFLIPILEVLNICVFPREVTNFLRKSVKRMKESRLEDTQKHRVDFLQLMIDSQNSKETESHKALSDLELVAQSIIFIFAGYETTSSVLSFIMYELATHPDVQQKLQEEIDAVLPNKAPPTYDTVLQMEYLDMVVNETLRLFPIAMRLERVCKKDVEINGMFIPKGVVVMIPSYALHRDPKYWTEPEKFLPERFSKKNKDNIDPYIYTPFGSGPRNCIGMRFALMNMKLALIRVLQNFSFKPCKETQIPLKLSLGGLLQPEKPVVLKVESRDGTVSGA
Description: CYP inhibition assay, CYP3A4. The following applies: probe Midazolam (5 μM), human liver microsomes. The format is in vitro ADME. How it is done:
(§1) In vitro CYP (cytochrome P450) enzyme inhibition studies predict a drug candidate's predisposition to inhibit cytochrome P450 enzymes. The cytochrome P450 (CYP) inhibition assay was run against CYP2D6 and CYP3A4 isoforms using human liver microsomes. For CYP2D6, the probe substrates was Bufaralol (10 μM) and the positive control was Quinidine (2.5 μM). Midazolam (5 μM) was chosen as the probe substrate for CYP3A4 and Ketocanazole (2.5 μM) was used as the positive control inhibitor. To increase the throughput of the assay, one concentration (10 μM) was tested. For analysis via LC-MS, internal standards of 1-OH-Bufuralol-maleate-[D9] for CYP2D6 and 1′-OH-Midazolam-13C3 for CYP3A4 were used.
A general note: Liver microsomes are a subcellular fraction often used to study metabolism.

The target in another data set is T4, CYP2D6 (Homo sapiens, UniProt P10635).
T4 construct: using human liver microsomes; from tissue; host or cells: human liver microsomes
T4 sequence (P10635 whole entry): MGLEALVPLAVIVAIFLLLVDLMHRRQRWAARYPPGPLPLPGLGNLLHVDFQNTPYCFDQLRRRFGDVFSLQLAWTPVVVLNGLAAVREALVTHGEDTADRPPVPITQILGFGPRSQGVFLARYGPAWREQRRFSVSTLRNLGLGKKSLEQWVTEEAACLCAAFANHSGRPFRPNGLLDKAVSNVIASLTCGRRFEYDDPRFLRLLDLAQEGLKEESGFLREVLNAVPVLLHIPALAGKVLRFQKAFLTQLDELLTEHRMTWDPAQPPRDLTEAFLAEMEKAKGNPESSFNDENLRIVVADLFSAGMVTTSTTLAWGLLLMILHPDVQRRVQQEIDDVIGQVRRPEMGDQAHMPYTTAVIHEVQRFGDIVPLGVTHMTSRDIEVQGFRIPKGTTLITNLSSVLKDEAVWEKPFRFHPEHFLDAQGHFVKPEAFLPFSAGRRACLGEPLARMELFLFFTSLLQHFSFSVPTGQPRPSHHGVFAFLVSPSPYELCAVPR
Description: CYP inhibition assay, CYP2D6. The class given is in vitro ADME. The following applies: probe Bufaralol (10 μM), human liver microsomes. How it is done: as §1

Data set [2] can be described thus: Cassette pharmacokinetic study, intravenous. The format is in vivo, C57BL/6 mice. The following applies: mice, route not given (IV study 0.4 mg/kg); for Vd: male, C57BL/6, mouse, plasma, read-out: VSS. On the procedure:
Cassette dosing is a technique primarily used in drug discovery efforts in non-clinical studies to collect pharmacokinetic data from multiple drug candidates in a single experiment.
C57BL/6 mice (21-22 g, 6-8 weeks, male, purchased from Jihui Laboratory Animal Co. LTD) were allowed access to food and water ad libitum throughout the in-life phase of the study. Mice were dosed intravenously (IV) with a cassette of 0.4 mg/kg of test compounds in 5% DMAC, 5% Solutol HS15 and 90% saline. At designated time points, the animals were restrained manually, and ˜110 μL of blood/time point was collected into pre-cooled EDTA-K2 tubes via the facial vein. Blood samples were centrifuged at 4° C. (2000 g, 5 min) to obtain plasma within 15 min after sample collection. Plasma samples were stored at approximately −70° C. until analysis. Samples were assayed for their levels of test compounds by LC/MS/MS using a Triple Quadruple (6500+) system operating in a positive electrospray ionisation mode.
The PK parameters of half-life (T1/2) and area under the curve (AUC) of the compounds were assessed following a single intravenous (IV) injection (0.4 mg/kg) in mice (male, C57BL/6).

Data set [3] in a line: Dedicated pharmacokinetic study, single oral dose. The class given is in vivo, C57BL/6 mice. Particulars: mice, route and dose not given; for half-life: C57BL/6, mouse, plasma, intravenous, 0.4 mg/kg.

Usually IC50 stands for the point on the concentration scale where inhibition reaches its midpoint. Usually inhibition stands for the change of the read-out against control, counted positive when it falls. The half-life is the time needed for the level to fall by half in the phase considered. A high value points to slow decline.

T1 sequence (Q8NBP7 153-692): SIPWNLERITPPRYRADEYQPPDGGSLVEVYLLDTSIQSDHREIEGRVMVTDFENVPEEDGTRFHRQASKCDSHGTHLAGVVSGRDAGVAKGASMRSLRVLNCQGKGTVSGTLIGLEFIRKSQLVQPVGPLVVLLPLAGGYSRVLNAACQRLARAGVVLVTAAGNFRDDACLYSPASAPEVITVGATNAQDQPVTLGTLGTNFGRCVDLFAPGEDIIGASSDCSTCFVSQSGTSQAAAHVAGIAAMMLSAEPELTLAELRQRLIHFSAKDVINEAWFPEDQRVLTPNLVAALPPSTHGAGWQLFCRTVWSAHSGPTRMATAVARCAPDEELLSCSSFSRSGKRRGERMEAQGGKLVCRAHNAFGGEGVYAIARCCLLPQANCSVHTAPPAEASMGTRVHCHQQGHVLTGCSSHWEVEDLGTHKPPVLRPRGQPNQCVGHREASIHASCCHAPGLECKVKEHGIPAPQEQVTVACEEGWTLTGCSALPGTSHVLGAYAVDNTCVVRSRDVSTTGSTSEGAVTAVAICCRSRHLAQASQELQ
T1 sequence (Q8NBP7 31-152 partner limits assumed): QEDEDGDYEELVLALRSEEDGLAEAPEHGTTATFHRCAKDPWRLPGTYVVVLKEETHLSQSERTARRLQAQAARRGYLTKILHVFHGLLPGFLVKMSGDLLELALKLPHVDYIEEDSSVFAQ

Take `Cc1ccc(-c2cc(CN3CCC(F)(F)[C@H](N)C3)cc(NC(=O)c3cc(-c4ccccc4)ccn3)c2)cn1` [Compound 122]: the half-maximal inhibitory concentration (IC50) in data set [1] turned out to be 279 nM; against hERG channel, 35700 nM. Moreover, in the data set with Caco-2 cells, the “bioavailability indicated by the in vitro Caco2 study” value (“bioavailability indicated” below) is reported as “good bioavailability”. The values for the inhibition at 10 µM at CYP3A4 and at CYP2D6 were -15.4% and 25.6%, respectively. Moreover, the Vd in data set [2] was 1.29 L/kg. In data set [3], the half-life is 11.3 h.

On to `Cc1cn(-c2cc(CN3CCC[C@H](N)C3)cc(NC(=O)c3cc(-c4ccccc4)ccn3)c2)cn1` [compound 29, (S)—N-(3-((3-aminopiperidin-1-yl)methyl)-5-(4-methyl-1H-imidazol-1-yl)phenyl)-4-phenylpicolinamide], for which the IC50 turned out to be 320 nM in data set [1] and 2850 nM against hERG channel. Further, in the data set on Caco-2 cells, the “bioavailability indicated” value is given as “good bioavailability”. Besides, the values for the inhibition at 10 µM against CYP3A4 and against CYP2D6 were 74% and 69.8%, respectively. Besides, the “VSS” value in data set [2] was determined as 14.7 L/kg. Further, the “T1/2” value in data set [3] is recorded as 6.29 h.

Take `Cc1cnc(C(=O)Nc2cc(CN3CCC(F)(F)[C@H](N)C3)cc(-c3ccc(C(F)(F)F)nc3)c2)cc1-c1ccccc1` [compound 131]: the IC50 in data set [1] was found to be 547 nM; against hERG channel, 94200 nM. For the same molecule, in the data set with Caco-2 cells, the “bioavailability indicated” value is listed as “good bioavailability”. Also, the inhibition at 10 µM amounted to 0.68% against CYP3A4 and 11.4% against CYP2D6. The Vd in data set [2] was 3.25 L/kg. In data set [3], this molecule gave a half-life of 19 h.
